Assay results taken from EP4667458A1 (Kanaph Therapeutics Inc., priority 2023, dated 2024).

Target: T1, KRAS^G12C::SOS1 (Homo sapiens, UniProt Q07889)
T1 sequence (Q07889 1-1333): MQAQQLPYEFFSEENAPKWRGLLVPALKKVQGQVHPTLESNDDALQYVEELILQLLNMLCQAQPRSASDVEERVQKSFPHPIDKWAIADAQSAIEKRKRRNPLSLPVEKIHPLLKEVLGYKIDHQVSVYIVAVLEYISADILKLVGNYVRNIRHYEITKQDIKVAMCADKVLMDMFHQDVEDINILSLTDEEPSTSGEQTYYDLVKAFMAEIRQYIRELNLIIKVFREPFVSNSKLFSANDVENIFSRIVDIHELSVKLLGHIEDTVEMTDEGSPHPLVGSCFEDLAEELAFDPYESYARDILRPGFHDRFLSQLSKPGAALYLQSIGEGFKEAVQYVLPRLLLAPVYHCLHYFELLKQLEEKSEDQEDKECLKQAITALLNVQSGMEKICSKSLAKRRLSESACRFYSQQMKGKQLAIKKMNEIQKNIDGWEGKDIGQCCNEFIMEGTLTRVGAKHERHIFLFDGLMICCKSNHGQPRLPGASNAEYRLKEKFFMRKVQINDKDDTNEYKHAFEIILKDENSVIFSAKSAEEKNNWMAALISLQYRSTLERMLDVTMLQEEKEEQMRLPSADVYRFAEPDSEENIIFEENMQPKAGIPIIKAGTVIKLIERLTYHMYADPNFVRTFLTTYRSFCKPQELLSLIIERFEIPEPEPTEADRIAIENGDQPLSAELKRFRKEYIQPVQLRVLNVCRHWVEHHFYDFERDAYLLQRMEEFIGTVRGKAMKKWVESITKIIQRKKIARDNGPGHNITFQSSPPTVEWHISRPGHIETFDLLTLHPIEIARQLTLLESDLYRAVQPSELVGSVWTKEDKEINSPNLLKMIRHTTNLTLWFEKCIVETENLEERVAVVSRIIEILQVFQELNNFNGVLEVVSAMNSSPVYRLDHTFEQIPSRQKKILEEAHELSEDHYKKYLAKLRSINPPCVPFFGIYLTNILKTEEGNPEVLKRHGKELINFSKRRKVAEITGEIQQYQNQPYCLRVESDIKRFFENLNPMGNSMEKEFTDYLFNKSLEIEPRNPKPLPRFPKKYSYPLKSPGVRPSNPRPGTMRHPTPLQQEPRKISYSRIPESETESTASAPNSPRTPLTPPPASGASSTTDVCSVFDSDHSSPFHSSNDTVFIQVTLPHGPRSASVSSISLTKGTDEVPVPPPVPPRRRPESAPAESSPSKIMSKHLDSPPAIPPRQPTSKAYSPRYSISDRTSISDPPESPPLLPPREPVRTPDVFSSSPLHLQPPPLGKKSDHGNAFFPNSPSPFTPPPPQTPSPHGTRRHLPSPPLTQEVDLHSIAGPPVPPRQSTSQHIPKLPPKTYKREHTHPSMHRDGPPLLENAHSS
Experiment: KRAS G12C::SOS1 protein-protein interaction (PPI) inhibition assay (HTRF binding kit)

Row | Compound | IC50 [nM]
1 | CNCc1cc2c(cc1-c1ccc([C@@H](C)NC(=O)c3ccc(=O)n(-c4ccccc4F)n3)s1)CC2 [Example 266, 1-(2-fluorophenyl)-N-[(1R)-1-[5-[4-(methylaminomethyl)-3-bicyclo [4.2.0]octa-1,3,5-trienyl]-2-thienyl]ethyl]-6-oxo-pyridazine-3-carboxamide] | < 1000
2 | C[C@@H](NC(=O)c1ccc(=O)n(-c2ccn(C)n2)n1)c1cc(N)cc(C(F)(F)F)c1 [Example 387, N-[(1R)-1-[3-amino-5-(trifluoromethyl)phenyl]ethyl]-1-(1-methylpyrazol-3-yl)-6-oxo-pyridazine-3-carboxamide] | < 1000
3 | C[C@@H](NC(=O)C1=NN(c2ccccc2)C(=O)CC1)c1cc(N)cc(C(F)(F)F)c1 [Example 264, N-[(1R)-1-[3-amino-5-(trifluoromethyl)phenyl]ethyl]-6-oxo-1-phenyl-4,5-dihydropyridazine-3-carboxamide] | < 1000
4 | C[C@@H](NC(=O)c1ccc(=O)n(-c2cnn(C)c2)c1)c1cc(N)cc(C(F)(F)F)c1 [Example 165, N-[(1R)-1-[3-amino-5-(trifluoromethyl)phenyl]ethyl]-1-(1-methylpyrazol-4-yl)-6-oxo-pyridine-3-carboxamide] | < 1000
5 | C[C@@H](O)c1cccc(-n2nc(C(=O)N[C@H](C)c3cc(N)cc(C(F)(F)F)c3)ccc2=O)c1 [Example 173, N-[(1R)-1-[3-amino-5-(trifluoromethyl)phenyl]ethyl]-1-[3-[(1R)-1-hydroxyethyl]phenyl]-6-oxo-pyridazine-3-carboxamide] | < 1000
6 | C[C@@H](NC(=O)c1ccc(=O)n(CCO)n1)c1cc(N)cc(C(F)(F)F)c1 [Example 223, N-[(1R)-1-[3-amino-5-(trifluoromethyl)phenyl]ethyl]-1-(2-hydroxyethyl)-6-oxo-pyridazine-3-carboxamide] | < 1000
7 | C[C@@H](NC(=O)c1ccc(=O)n(-c2cccc(-c3ccn(C(F)F)n3)c2)n1)c1cc(N)cc(C(F)(F)F)c1 [Example 344, N-[(1R)-1-[3-amino-5-(trifluoromethyl)phenyl]ethyl]-1-[3-[1-(difluoromethyl)pyrazol-3-yl]phenyl]-6-oxo-pyridazine-3-carboxamide] | < 1000
8 | CNCc1ccc(Cl)cc1-c1ccc([C@@H](C)NC(=O)c2ccc(=O)n(-c3cccnc3F)c2)s1 [Example 277, N-[(1R)-1-[5-[5-chloro-2-(methylaminomethyl)phenyl]-2-thienyl]ethyl]-1-(2-fluoro-3-pyridyl)-6-oxo-pyridine-3-carboxamide] | < 1000
9 | Cc1c([C@@H](C)NC(=O)c2ccc(=O)n(-c3ccccc3F)n2)cccc1C(F)(F)CO [Example 246, N-[(1R)-1-[3-(1,1-difluoro-2-hydroxy-ethyl)-2-methyl-phenyl]ethyl]-1-(2-fluorophenyl)-6-oxo-pyridazine-3-carboxamide] | < 1000
10 | Cc1nnn(C)c1-c1cccc(-n2nc(C(=O)N[C@H](C)c3cc(N)cc(C(F)(F)F)c3)ccc2=O)c1 [Example 350, N-[(1R)-1-[3-amino-5-(trifluoromethyl)phenyl]ethyl]-1-[3-(3,5-dimethyltriazol-4-yl)phenyl]-6-oxo-pyridazine-3-carboxamide] | < 1000
11 | COc1ccc(F)c(-n2cc(C(=O)N[C@H](C)c3cccc(C(F)(F)CO)c3F)ccc2=O)c1 [Example 177, N-[(1R)-1-[3-(1,1-difluoro-2-hydroxy-ethyl)-2-fluoro-phenyl]ethyl]-1-(2-fluoro-5-methoxyphenyl)-6-oxo-pyridine-3-carboxamide] | < 1000
12 | C[C@@H](NC(=O)c1ccc(=O)n(-c2ccccc2F)n1)c1ccc(-c2ccccc2CO)s1 [Example 299, 1-(2-fluorophenyl)-N-[(1R)-1-[5-[2-(hydroxymethyl)phenyl]-2-thienyl]ethyl]-6-oxo-pyridazine-3-carboxamide] | 1000 to 10000
13 | Cc1ncc(-n2nc(C(=O)N[C@H](C)c3cc(N)cc(C(F)(F)F)c3)ccc2=O)cn1 [Example 161, N-[(1R)-1-[3-amino-5-(trifluoromethyl)phenyl]ethyl]-1-(2-methylpyrimidin-5-yl)-6-oxo-pyridazine-3-carboxamide] | < 1000
14 | COc1cccc(-n2nc(C(=O)N[C@H](C)c3cc(N)cc(C(F)(F)F)c3)ccc2=O)c1F [Example 185, N-[(1R)-1-[3-amino-5-(trifluoromethyl)phenyl]ethyl]-1-(2-fluoro-3-methoxy-phenyl)-6-oxo-pyridazine-3-carboxamide] | < 1000

The remaining lines, values ahead:

Row | IC50 [nM] | Compound
15 | < 1000 | C[C@@H](NC(=O)c1ccc(=O)n(-c2cccc(-c3cnnn3C)c2)c1)c1cc(N)cc(C(F)(F)F)c1 [Example 326, N-[(1R)-1-[3-amino-5-(trifluoromethyl)phenyl]ethyl]-1-[3-(3-methyltriazol-4-yl)phenyl]-6-oxo-pyridine-3-carboxamide]
16 | < 1000 | C[C@@H](NC(=O)c1ccc(=O)n(-c2cccc(-c3ccnn3C)c2)c1)c1cc(N)cc(C(F)(F)F)c1 [Example 321, N-[(1R)-1-[3-amino-5-(trifluoromethyl)phenyl]ethyl]-1-[3-(2-methylpyrazol-3-yl)phenyl]-6-oxo-pyridine-3-carboxamide]
17 | < 1000 | C[C@@H](NC(=O)c1ccc(=O)n(-c2cccnc2F)n1)c1ccc(-c2cc(F)ccc2CC#N)s1 [Example 415, N-[(1R)-1-[5-[2-(cyanomethyl)-5-fluorophenyl]-2-thienyl]ethyl]-1-(2-fluoro-3-pyridyl)-6-oxo-pyridazine-3-carboxamide]
18 | < 1000 | CNCc1ccccc1-c1ccc([C@@H](C)NC(=O)c2nn(-c3ccccc3F)c(=O)c3ccsc23)s1 [Example 269, 5-(2-fluorophenyl)-N-[(1R)-1-[5-[2-(methylaminomethyl)phenyl]-2-thienyl]ethyl]-4-oxo-thieno[2,3-d]pyridazine-7-carboxamide]
19 | < 1000 | C[C@@H](NC(=O)c1ccc(=O)n(-c2ccccc2)n1)c1cc(O)cc(F)c1 [Example 219, N-[(1R)-1-(3-fluoro-5-hydroxy-phenyl)ethyl]-6-oxo-1-phenyl-pyridazine-3-carboxamide]
20 | < 1000 | CNCc1ccc(Cl)cc1-c1ccc([C@@H](C)NC(=O)c2ccc(=O)n(-c3cnn(C)c3)n2)s1 [Example 292, (R)-N-(1-(5-(5-chloro-2-((methylamino)methyl)phenyl)thiophen-2-yl)ethyl)-1-(1-methyl-1H-pyrazol-4-yl)-6-oxo-1,6-dihydropyridazine-3-carboxamide]
21 | < 1000 | C[C@@H](NC(=O)c1ccc(=O)n(-c2cccc(-c3cccnc3)c2)n1)c1cc(N)cc(C(F)(F)F)c1 [Example 338, N-[(1R)-1-[3-amino-5-(trifluoromethyl)phenyl]ethyl]-6-oxo-1-[3-(3-pyridyl)phenyl]pyridazine-3-carboxamide]
22 | < 1000 | COc1ccc(-n2nc(C(=O)N[C@H](C)c3cccc(C(F)(F)CO)c3F)ccc2=O)c(F)c1 [Example 215, N-[(1R)-1-[3-(1,1-difluoro-2-hydroxy-ethyl)-2-fluoro-phenyl]ethyl]-1-(2-fluoro-4-methoxy-phenyl)-6-oxo-pyridazine-3-carboxamide]
23 | < 1000 | C[C@@H](NC(=O)c1ccc(=O)n(-c2ccccc2F)n1)c1cccc(C(F)(F)CN(C)C)c1 [Example 258, N-[(1R)-1-[3-[2-(dimethylamino)-1,1-difluoro-ethyl]phenyl]ethyl]-1-(2-fluorophenyl)-6-oxo-pyridazine-3-carboxamide]
